Structures can show the parent of a compound that is named as a salt.
Experiments:
[1] = system: carrigeenan-induced swelling; assay: Anti-edema test (carrageenin-induced hind paw edema); type: in vivo, male Wistar rats (Taiwan strain); settings: one hour before carrigeenan, measured three hours after injection, rat
Method: (§1) The first test is for adjuvant arthritis inhibition and the second, an anti-edema test, involves the diminution of experimental edema induced in the hind paw of a rat by the injection of carrageenin.
Anti-edema effect was determined according to the test procedure recited by Winter, C.A., Risley, E. A., and Nuss, G. W., Proc. Exper. Biol. Med. 111:544-547, 1962. For this test, three male Wistar rats (Taiwan strain) weighing 100-120 g each are orally dosed with test compound dissolved or suspended in 3 ml of water. One hour later, the plantar surface of the right hind paw was injected with 0.1 ml of a 1 percent suspension of carrigeenan in saline and the left paw was similarly injected with saline only. Three hours after the injection the volume of both hind paw was measured by fluid displacement and the percent decrease in carrigeenan-induced swelling (volume of carrigeenan injected foot minus saline injected foot) was determined by comparison with untreated (no test compound) animals. Greater than 30 percent inhibition is considered evidence of an anti-edema effect.

adjuvant arthritis = assay: Adjuvant arthritis inhibition (hind-foot volume, primary and secondary lesions); type: in vivo, Wistar male rats (Taiwan strain); settings: five daily doses, rat; for Percent Reduction in Edema of the Primary Lesion: injected right hind paw measured four hours after fifth dose; for Percent Reduction in Edema of the Secondary Lesion: uninjected foot measured fourteen days after adjuvant inoculation
Source text: as §1
This test was run according to the test procedure recited by VanArman, G. C., Nuss, G. W. and Risley, E. A., J. Pharmacol..Exper. Terap., 187:400-413, 1973. The following is a description of the test: • The hind-foot volumes of five Wistar male. rats (Taiwan strain) weighing 130-160 g each were measured by fluid displacement immediately prior to intraplantar administration (right hind paw) of 0.1 ml of an adjuvant suspension containing 5 milligrams (mg) Mycobacterium butyricum bacilli suspended in heavy mineral oil. Test compounds were orally administered to the animals for five days beginning the day before injection of the adjuvant. Four hours after the fifth daily drug dose the volume of the right hind paw (primary lesion) was measured for determination of any acute anti-inflammatory effect. Fourteen days after adjuvant inoculation the volume of the uninjected foot was measured (secondary lesion) for determination of prolonged anti-inflammatory effect or immunosuppressant effect. The percent reduction in foot volume was calculated for each hind paw in relation to corresponding control values determined simultaneously. A greater than 30 percent reduction in volume of either paw is considered a significant effect. Reduction of the primary lesion without effect on the secondary lesion denotes acute anti-inflammatory activity of short to moderate duration.

Systolic blood pressure = assay: Anti-hypertensive screening (systolic blood pressure by tail cuff); type: in vivo, normotensive Wistar rats (Taiwan strain); settings: 100 mg/kg oral, rat
Method: This test was run according to the test procedure recited by Nagoaka, A., Kikuchi, K. and Aramaki, Y., Jap. J. Pharmacol., 19:401-408, 1969. For this test, two normotensive Wistar rats (Taiwan strain) were placed in perspex holders and then placed in a heated chamber at 40°C for 4-6 minutes before treatment. They were maintained there throughout each experiment. Systolic blood pressure was recorded by indirect means employing a tail cuff and pneumatic sensor device applied to the base of the animals' tails. The device was coupled to a programmed Narco-Biosystems sphygmomano meter (Model PE-300), an instrument for measuring blood pressure, and Sanei polygraph. After recording suitably steady blood pressure readings, test drugs were orally administered and blood pressure checked again 2, 4 and 6 hours after drug administration. A mean decrease of more than 10 percent from the pretreatment value at any two consecutive measurement intervals is considered evidence of hypotensive effect.

SMILES	Reduction of Induced Edema ([1]; 100 mg/kg oral) [%]	Percent Reduction in Edema of the Primary Lesion (adjuvant arthritis; 100 mg/kg oral) [%]	Percent Reduction in Edema of the Secondary Lesion (adjuvant arthritis; 100 mg/kg oral) [%]	Percent Mean Decrease in Systolic Blood Pressure (Systolic blood pressure; 2 hours after administration) [%]	Percent Mean Decrease in Systolic Blood Pressure (Systolic blood pressure; 4 hours after administration) [%]	Percent Mean Decrease in Systolic Blood Pressure (Systolic blood pressure; 6 hours after administration) [%]	further results
COc1ccc(NC(=S)N=CN(C)C)cc1 [Compound 1, 1-(p-methoxyphenylthiocarbamyl) 3,3-dimethyl formamidine hydrochloride]	–	–	–	–	–	–	Reduction of Induced Edema ([1]; 5 mg/kg oral): 35%; Percent Reduction in Edema of the Primary Lesion (adjuvant arthritis; 5 mg/kg oral): 39%; Percent Reduction in Edema of the Secondary Lesion (adjuvant arthritis; 5 mg/kg oral): 35%
CCc1cccc(CC)c1NC(=S)N=CN(C)C [Compound 3]	33	39	31	–	–	–	–
CCCCC1C(=O)N(c2ccccc2)N(c2ccccc2)C1=O [phenylbutazone, reference compound]	41	–	–	–	–	–	–
C[C@](N)(Cc1ccc(O)c(O)c1)C(=O)O [α-methyl 3,4-dihydroxy-phenylalanine, reference compound]	–	–	–	11	21	19	–
Cc1ccc(NC(=S)N=CN(C)C)c(C)c1 [Compound 4]	–	0	0	4	17	15	–
CN(C)C=NC(=S)Nc1ccc(Cl)cc1 [Compound 2]	–	–	–	–	–	–	Reduction of Induced Edema ([1]; 25 mg/kg oral): 32%

Source: patent EP0075047A1, “1-(Substituted phenylthiocarbamyl) 3,3-disubstituted formamidines and their production and pharmaceutical compositions containing them” (STAUFFER CHEMICAL COMPANY, priority 1981, dated 1983)
